Like-named read-outs stand apart in the source and are kept apart here.
Key:
Assay in all cases: TEAD lipid pocket TR-FRET (Lipid HTRF) probe competition assay
Format in all cases: binding
TEAD1 = TEAD1 (Homo sapiens (Human), UniProt P28347)
Experimental: (§1) His-tagged TEAD proteins are pre-incubated with TEAD project compounds for 30 minutes or 4 hours at room temperature. Biotinylated lipid pocket probes are then added to the TEAD/Compound mixture and incubated for 60 minutes at room temperature. The lipid pocket probe competes with the test compound for the TEAD lipid pocket until equilibrium is reached. After 60 minutes, Europium labelled anti-His (Perkin Elmer #ADO 110) and XL665 labelled streptavidin (CIS Bio 610SAXAC) are added to the TEAD/test compound/lipid pocket mixture and incubated for 30 minutes or 4 hours. […] If a TEAD lipid pocket binder such as binds and displaces the lipid pocket probe, the disruption of the TEAD:probe interaction results in a decrease in TR-FRET signal. The potency of compounds as TEAD lipid pocket binders is determined by IC50 value generated using a non-linear 4 parameter curve fit.
(§2) Note that the “Compound Number” in Table 2 and Table 3 corresponds to the “Compound Number” in Table 1.

TEAD2 = TEAD2 (Homo sapiens (Human), UniProt Q15562)
Chain of TEAD2 (Q15562 whole entry): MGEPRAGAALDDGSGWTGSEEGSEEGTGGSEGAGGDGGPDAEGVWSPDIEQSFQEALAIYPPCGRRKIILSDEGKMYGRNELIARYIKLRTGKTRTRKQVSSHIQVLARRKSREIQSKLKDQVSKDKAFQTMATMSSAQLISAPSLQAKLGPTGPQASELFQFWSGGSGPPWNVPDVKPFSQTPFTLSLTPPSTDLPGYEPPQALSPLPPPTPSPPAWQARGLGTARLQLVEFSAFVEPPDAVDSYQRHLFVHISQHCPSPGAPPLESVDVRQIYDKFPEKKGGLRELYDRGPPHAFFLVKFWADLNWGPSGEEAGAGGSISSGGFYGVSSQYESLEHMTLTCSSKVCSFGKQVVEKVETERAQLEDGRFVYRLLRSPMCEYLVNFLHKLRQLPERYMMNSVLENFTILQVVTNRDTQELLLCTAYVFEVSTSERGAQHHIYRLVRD
Experimental: as §1, §2

TEAD3 = TEAD3 (Homo sapiens (Human), UniProt Q99594); details: 4 hours incubation with compound
Chain of TEAD3 (Q99594 whole entry, species assumed): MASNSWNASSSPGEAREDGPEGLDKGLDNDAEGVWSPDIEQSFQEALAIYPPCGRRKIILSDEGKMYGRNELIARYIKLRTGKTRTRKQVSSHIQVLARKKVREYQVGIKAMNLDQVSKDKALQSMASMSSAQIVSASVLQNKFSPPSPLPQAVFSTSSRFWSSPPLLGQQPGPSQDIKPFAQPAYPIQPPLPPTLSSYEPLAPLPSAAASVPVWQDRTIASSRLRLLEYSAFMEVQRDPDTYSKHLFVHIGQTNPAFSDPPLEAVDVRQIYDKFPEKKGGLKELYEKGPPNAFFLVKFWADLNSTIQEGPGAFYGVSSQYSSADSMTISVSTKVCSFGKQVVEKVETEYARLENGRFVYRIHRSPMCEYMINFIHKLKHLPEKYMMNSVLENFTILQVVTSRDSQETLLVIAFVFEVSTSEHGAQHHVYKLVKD
Experimental: as §1, §2

TEAD4 = TEAD4 (Homo sapiens (Human), UniProt Q15561)
Chain of TEAD4 (Q15561 whole entry, species assumed): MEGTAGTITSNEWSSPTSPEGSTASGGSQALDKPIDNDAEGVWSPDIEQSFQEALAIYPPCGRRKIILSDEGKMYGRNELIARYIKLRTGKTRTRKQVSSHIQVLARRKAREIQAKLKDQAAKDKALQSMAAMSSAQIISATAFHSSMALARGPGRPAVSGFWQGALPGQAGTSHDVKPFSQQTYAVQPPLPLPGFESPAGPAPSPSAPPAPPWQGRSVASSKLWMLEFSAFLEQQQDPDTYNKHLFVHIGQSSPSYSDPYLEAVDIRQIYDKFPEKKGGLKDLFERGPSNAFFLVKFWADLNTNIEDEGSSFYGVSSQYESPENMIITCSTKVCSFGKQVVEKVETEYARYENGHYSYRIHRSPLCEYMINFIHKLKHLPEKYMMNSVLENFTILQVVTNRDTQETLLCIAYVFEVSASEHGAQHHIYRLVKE
Experimental: as §1, §2

[1] = 4 hours incubation with compound, read-out: Lipid HTRF TEAD1 IC50
[2] = 4 hours incubation with compound, read-out: Lipid HTRF TEAD2 IC50
[3] = 4 hours incubation with compound, read-out: Lipid HTRF TEAD4 IC50
[4] = Lipid HTRF TEAD4 IC50, 4 hours incubation with compound

Chain of TEAD1 (P28347 whole entry, species assumed): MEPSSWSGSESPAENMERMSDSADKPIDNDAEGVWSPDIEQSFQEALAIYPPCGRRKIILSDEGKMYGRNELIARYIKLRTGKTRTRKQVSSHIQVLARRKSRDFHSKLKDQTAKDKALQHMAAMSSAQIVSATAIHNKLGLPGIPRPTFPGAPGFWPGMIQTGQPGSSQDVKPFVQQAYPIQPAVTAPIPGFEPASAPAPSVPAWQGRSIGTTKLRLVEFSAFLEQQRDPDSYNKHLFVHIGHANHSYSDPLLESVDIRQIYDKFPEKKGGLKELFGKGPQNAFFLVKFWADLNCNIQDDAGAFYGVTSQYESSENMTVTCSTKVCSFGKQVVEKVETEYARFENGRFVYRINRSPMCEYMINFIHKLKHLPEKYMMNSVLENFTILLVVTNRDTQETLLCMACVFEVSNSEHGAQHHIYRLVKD

| Structure (SMILES) | IC50 (TEAD1; [1]) | IC50 (TEAD2; [2]) | IC50 (TEAD3) | IC50 (TEAD4; [3]) | IC50 (TEAD4; [4]) | IC50 (TEAD2; Lipid HTRF TEAD2 IC50, 4 hours incubation with compound) | IC50 (TEAD1; Lipid HTRF TEAD1 IC50, 4 hours incubation with compound) |
| --- | --- | --- | --- | --- | --- | --- | --- |
| C=C(CNc1cc(-c2ncc(C(C)C)s2)c2c(c1C#N)CCO2)C(=O)NO [Compound 27, 2-[[[4-cyano-7-(5-isopropylthiazol-2-yl)-2,3-dihydrobenzofuran-5-yl]amino]methyl]prop-2-enehydroxamic acid] | 310 nM | 110 nM | > 50000 nM | 170 nM | – | – | – |
| [2H]C1([2H])COc2c(-c3ccc(C(C)C)cc3)cc(NCC(=C)C(=O)NO)c(C#N)c21 [Compound 29, 2-[[[4-cyano-3,3-dideuterio-7-(4-isopropylphenyl)-2H-benzofuran-5-yl]amino]methyl]prop-2-enehydroxamic acid] | 60 nM | 10 nM | 430 nM | 40 nM | – | – | – |
| C=C(CNc1cc(-c2nc(C(C)C)cs2)c2c(c1C#N)CCO2)C(=O)NO [Compound 31, 2-[[[4-cyano-7-(4-isopropylthiazol-2-yl)-2,3-dihydrobenzofuran-5-yl]amino]methyl]prop-2-enehydroxamic acid] | > 50000 nM | 860 nM | > 50000 nM | 36000 nM | – | – | – |
| C=C(CNc1cc(-c2cc(C(C)C)cs2)c2c(c1C#N)CCO2)C(=O)O [Compound 32, 2-[[[4-cyano-7-(4-isopropyl-2-thienyl)-2,3-dihydrobenzofuran-5-yl]amino]methyl]prop-2-enoic acid] | 10 nM | 40 nM | 430 nM | 10 nM | – | – | – |
| [2H]C1([2H])COc2c(-c3ccc(C(C)C)cc3)cc(NCC(=C)C(N)=O)c(C#N)c21 [Compound 33, 2-[[[4-cyano-3,3-dideuterio-7-(4-isopropylphenyl)-2H-benzofuran-5-yl]amino]methyl]prop-2-enamide] | 180 nM | 60 nM | 1400 nM | – | 80 nM | – | – |
| C=C(CNc1cc(-c2ccc(OC(F)(F)F)cc2)c2c(c1CO)CCO2)C(N)=O [Compound 35, 2-[[[4-(hydroxymethyl)-7-[4-(trifluoromethoxy)phenyl]-2,3-dihydrobenzofuran-5-yl]amino]methyl]prop-2-enamide] | 160 nM | 30 nM | 1700 nM | 250 nM | – | – | – |
| C=C(CNc1cc(-n2ccc(C(C)C)n2)c2c(c1C#N)CCO2)C(=O)NO [Compound 36, 2-[[[4-cyano-7-(3-isopropylpyrazol-1-yl)-2,3-dihydrobenzofuran-5-yl]amino]methyl]prop-2-enehydroxamic acid] | > 50000 nM | 710 nM | > 50000 nM | > 50000 nM | – | – | – |
| [2H]C1([2H])Cc2c(C#N)c(NCC(=C)C(=O)NO)cc(-c3ccc(OC(F)(F)F)cc3)c2O1 [Compound 37, 2-[[[4-cyano-2,2-dideuterio-7-[4-(trifluoromethoxy)phenyl]-3H-benzofuran-5-yl]amino]methyl]prop-2-enehydroxamic acid] | 50 nM | – | 420 nM | 50 nM | – | 10 nM | – |
| C=C(CNc1cc(-c2ccc(S(F)(F)(F)(F)F)cc2)c2c(c1C#N)CCO2)C(=O)NO [Compound 38, 2-[[[4-cyano-7-[4-(pentafluoro-lambda6-sulfanyl)phenyl]-2,3-dihydrobenzofuran-5-yl]amino]methyl]prop-2-enehydroxamic acid] | 90 nM | 30 nM | 710 nM | 80 nM | – | – | – |
| C=C(CNc1cc(-c2ccc(OC(F)(F)F)cc2)c2c(c1C#N)CCO2)C(=O)NO [Compound 39, 2-[[[4-cyano-7-[4-(trifluoromethoxy)phenyl]-2,3-dihydrobenzofuran-5-yl]amino]methyl]prop-2-enehydroxamic acid] | 40 nM | 10 nM | 400 nM | 60 nM | – | – | – |
| [2H]C1([2H])COc2c(-c3ccc(C(C)C)cc3)cc(NCC(=C)C(=O)O)c(C#N)c21 [Compound 40, 2-[[[4-cyano-3,3-dideuterio-7-(4-isopropylphenyl)-2H-benzofuran-5-yl]amino]methyl]prop-2-enoic acid] | – | 40 nM | 680 nM | – | 20 nM | – | 20 nM |
| C=C(CNc1cc(-c2ccc(OC(F)(F)F)cc2)c2ncsc2c1C#N)C(=O)NO [Compound 41, 2-[[[7-cyano-4-[4-(trifluoromethoxy)phenyl]-1,3-benzothiazol-6-yl]amino]methyl]prop-2-enehydroxamic acid] | 80 nM | 10 nM | 660 nM | 40 nM | – | – | – |
| C=C(CNc1cc(-c2ccc(OC(F)(F)F)cc2)c2c(c1C#N)CCO2)C(=O)N(C)O [Compound 43, 2-[[[4-cyano-7-[4-(trifluoromethoxy)phenyl]-2,3-dihydrobenzofuran-5-yl]amino]methyl]-N-hydroxy-N-methyl-prop-2-enamide] | 400 nM | 1700 nM | 18000 nM | 520 nM | – | – | – |
| C=C(CNc1cc(-c2ccc(OC(F)(F)F)cc2)c2c(c1C#N)CCO2)C(N)=O [Compound 44, 2-[[[4-cyano-7-[4-(trifluoromethoxy)phenyl]-2,3-dihydrobenzofuran-5-yl]amino]methyl]prop-2-enamide] | 110 nM | 40 nM | 1200 nM | 140 nM | – | – | – |
| C=C(CNc1cc(-c2ccc(S(F)(F)(F)(F)F)cc2)c2c(c1C#N)CCO2)C(=O)O [Compound 45, 2-[[[4-cyano-7-[4-(pentafluoro-lambda6-sulfanyl)phenyl]-2,3-dihydrobenzofuran-5-yl]amino]methyl]prop-2-enoic acid] | 30 nM | 170 nM | 920 nM | 80 nM | – | – | – |
| C=C(CNc1cc(-c2ccc(OC(F)(F)F)cc2)c2c(c1CO)CCO2)C(=O)NO [Compound 46, 2-[[[4-(hydroxymethyl)-7-[4-(trifluoromethoxy)phenyl]-2,3-dihydrobenzofuran-5-yl]amino]methyl]prop-2-enehydroxamic acid] | 50 nM | 10 nM | 440 nM | 60 nM | – | – | – |
| C=C(CNc1cc(-c2ccc(S(F)(F)(F)(F)F)cc2)c2c(c1C#N)CCO2)C(N)=O [Compound 48, 2-[[[4-cyano-7-[4-(pentafluoro-lambda6-sulfanyl)phenyl]-2,3-dihydrobenzofuran-5-yl]amino]methyl]prop-2-enamide] | 250 nM | 220 nM | 2600 nM | 260 nM | – | – | – |
| C=C(CNc1cc(-c2ncc(C(C)C)s2)c2c(c1C#N)CCO2)C(=O)O [Compound 49, 2-[[[4-cyano-7-(5-isopropylthiazol-2-yl)-2,3-dihydrobenzofuran-5-yl]amino]methyl]prop-2-enoic acid] | 310 nM | 240 nM | 2800 nM | 90 nM | – | – | – |
| C=C(CNc1cc(-c2ccc(S(F)(F)(F)(F)F)cc2)c2ncsc2c1C#N)C(=O)NO [Compound 51, 2-[[[7-cyano-4-[4-(pentafluoro-lambda6-sulfanyl)phenyl]-1,3-benzothiazol-6-yl]amino]methyl]prop-2-enehydroxamic acid] | 200 nM | 30 nM | 1200 nM | 60 nM | – | – | – |

From US11787775B2, “Therapeutic compounds and methods of use” (priority 2020, dated 2023)
